Structures are written as SMILES.

Type in all cases: in vivo, rat (Wistar)
For one assay, the system named is DA-receptor. The assay is described as follows: Contralateral circling in rats with unilateral 6-hydroxy-DA (6-OHDA) lesions. As to 6-OHDA Contr. Circle. rats (sc) Duration: test concentration or dose not given here. To be noted: 6-OHDA-lesioned rats; for 6-OHDA Contr. Circle. rats (sc) ED50: doses calculated as the free amine; for 6-OHDA Contr. Circle. rats (sc) Duration: duration given instead of ED50. As to the method: Furthermore, the potency of the drug to induce contralateral circling behaviour in 6-hydroxy-DA-lesioned rats was determined. The specificity of this receptor resembles that of the […] DA receptors mediating motility inhibition.
The experiments were made according to published methods, using rats of the Wistar strain.
Therefore, also the ability of a test compound to induce contralateral circling in rats with unilateral 6-hydroxy-DA lesions was evaluated (loc cit.).

A further assay concerns DA-autoreceptors. The experiment in a line: Inhibition of spontaneous locomotor activity (motility inhibition) in rats. Particulars: doses calculated as the free amine.
Assay [1] concerns postsynaptic DA-receptors. The experiment in a line: Reversal of locomotor depression (hypomotility) in reserpine plus alpha-methyl-p-tyrosine pretreated rats.

As to `CCN(CC)CC1CCc2ccc(O)cc21` (single isomer, unassigned; (+)) [Lu 22-106, (+) N,N-diethyl-6-hydroxy-1-indanmethylamine], the “6-OHDA Contr. Circle. rats (sc) ED50” value with DA-receptor was 0.36 µmol/kg. Also, the “Motility Inh. rats (sc) ED50” value in the assay on DA-autoreceptors was 1.1 µmol/kg. Besides, the “Reserpin α-Mt Rev. rats (sc) ED50” value in assay [1] was determined as 14 µmol/kg.
Consider `CCCN(CCC)CC1COc2ccc(O)cc21` (single isomer, unassigned; (+)) [Lu 24-122, (+)-5-hydroxy-2,3-dihydro-N,N-dipropyl-3-benzofuranmethylamine], for which the “6-OHDA Contr. Circle. rats (sc) ED50” value in the assay with DA-receptor is 0.16 µmol/kg. Moreover, the “Motility Inh. rats (sc) ED50” value in the assay on DA-autoreceptors was 0.81 µmol/kg.
In the case of `CCCN(C)CC1COc2ccc(O)cc21` (single isomer, unassigned; (+)) [Lu 25-020, (+)-5-hydroxy-2,3-dihydro-N-methyl-N-propyl-3-benzofuranmethylamine], in the assay with DA-receptor, the “6-OHDA Contr. Circle. rats (sc) ED50” value is 0.95 µmol/kg. Further, the “Motility Inh. rats (sc) ED50” value with DA-autoreceptors is 4.1 µmol/kg. Further, the “Reserpin α-Mt Rev. rats (sc) ED50” value in assay [1] worked out at 65 µmol/kg.
In the case of `CCCN(CCC)CC1CCc2ccc(O)cc21` (single isomer, unassigned; (-)) [Lu 22-049, (-)-N,N-dipropyl-6-hydroxy-1-indanmethylamine], the “6-OHDA Contr. Circle. rats (sc) ED50” value in the assay with DA-receptor was 0.18 µmol/kg. In addition, the “Motility Inh. rats (sc) ED50” value in the assay on DA-autoreceptors was 0.26 µmol/kg. The “Reserpin α-Mt Rev. rats (sc) ED50” value in assay [1] is 4.5 µmol/kg.
Turning to `CCCN(CCC)CC1CCc2ccc(O)cc21` (single isomer, unassigned; (-)) [Lu 22-050, (-)-N,N-dipropyl-6-hydroxy-1-indanmethylamine], in the assay with DA-receptor, the “6-OHDA Contr. Circle. rats (sc) ED50” value is 0.45 µmol/kg. For the same compound, the “Motility Inh. rats (sc) ED50” value in the assay with DA-autoreceptors is 1.3 µmol/kg. Further, the “Reserpin α-Mt Rev. rats (sc) ED50” value in assay [1] came to 60 µmol/kg.
Regarding `CCN(CC)CC1CCc2ccc(O)cc21` (single isomer, unassigned; (-)) [Lu 22-105, (-) N,N-diethyl-6-hydroxy-1-indanmethylamine], in the assay with DA-receptor, the “6-OHDA Contr. Circle. rats (sc) ED50” value was 1.2 µmol/kg. Also, the “Motility Inh. rats (sc) ED50” value in the assay with DA-autoreceptors is 0.87 µmol/kg. Besides, the “Reserpin α-Mt Rev. rats (sc) ED50” value in assay [1] was found to be 120 µmol/kg.
Consider `CCCN(CCC)CC1COc2ccc(O)cc21` (single isomer, unassigned; (-)) [Lu 24-121, (-)-5-hydroxy-2,3-dihydro-N,N-dipropyl-3-benzofuranmethylamine], for which the “6-OHDA Contr. Circle. rats (sc) ED50” value in the assay with DA-receptor is 1.7 µmol/kg. The “Motility Inh. rats (sc) ED50” value in the assay on DA-autoreceptors is 5.4 µmol/kg. Further, the “Reserpin α-Mt Rev. rats (sc) ED50” value in assay [1] worked out at 86 µmol/kg.
The matching figures for `CCCN(C)CC1COc2ccc(O)cc21` (single isomer, unassigned; (-)) [Lu 25-021, (-)-5-hydroxy-2,3-dihydro-N-methyl-N-propyl-3-benzofuranmethylamine]: 5.2 µmol/kg, 5.4 µmol/kg and 290 µmol/kg.
Regarding `CCCN(CCC)CC1CCc2ccc(O)cc21` (stereo not drawn) [Lu 21-051, N,N-dipropyl-6-hydroxy-1-indanmethylamine], the “6-OHDA Contr. Circle. rats (sc) ED50” value in the assay on DA-receptor was 0.35 µmol/kg. In addition, in the assay with DA-autoreceptors, the “Motility Inh. rats (sc) ED50” value was 0.45 µmol/kg. For the same compound, the “Reserpin α-Mt Rev. rats (sc) % at 5 μmol/kg” value in assay [1] was found to be 44%.
For the compound `CCN(CC)CC1CCc2ccc(O)cc21` (stereo not drawn) [Lu 21-096, N,N-diethyl-6-hydroxy-1-indanmethylamine], the “6-OHDA Contr. Circle. rats (sc) ED50” value with DA-receptor was 0.19 µmol/kg. In addition, the “Motility Inh. rats (sc) ED50” value with DA-autoreceptors is 1.0 µmol/kg. The “Reserpin α-Mt Rev. rats (sc) % at 5 μmol/kg” value in assay [1] is recorded as 50%.
Consider `CCCN(CCC)CC1CCc2ccc(OC)cc21` (stereo not drawn) [Lu 21-097, N,N-dipropyl-6-methoxy-1-indanmethylamine], for which the “6-OHDA Contr. Circle. rats (sc) ED50” value in the assay on DA-receptor is greater than 14 µmol/kg. In the assay on DA-autoreceptors, the “Motility Inh. rats (sc) ED50” value is greater than 14 µmol/kg.
As to `CN(C)CC1CCc2ccc(O)cc21` (stereo not drawn) [Lu 21-112, N,N-dimethyl-6-hydroxy-1-indanmethylamine], in the assay on DA-receptor, the “6-OHDA Contr. Circle. rats (sc) ED50” value was 0.95 µmol/kg. Also, the “Motility Inh. rats (sc) ED50” value with DA-autoreceptors was 5.7 µmol/kg. In assay [1], the “Reserpin α-Mt Rev. rats (sc) ED50” value was 12 µmol/kg.
On to `CCCNCC1CCc2ccc(O)cc21` (stereo not drawn) [Lu 21-138, 6-Hydroxy-N-propyl-1-indanmethylamine], for which the “6-OHDA Contr. Circle. rats (sc) ED50” value in the assay with DA-receptor was 10 µmol/kg. In addition, in the assay on DA-autoreceptors, the “Motility Inh. rats (sc) ED50” value is 19 µmol/kg.
Regarding `CCCCN(CCCC)CC1CCc2ccc(O)cc21` (stereo not drawn) [Lu 22-028, N,N-Dibutyl-6-hydroxy-1-indanmethylamine], the “6-OHDA Contr. Circle. rats (sc) ED50” value with DA-receptor is greater than 14 µmol/kg. Moreover, in the assay on DA-autoreceptors, the “Motility Inh. rats (sc) ED50” value was 13 µmol/kg.
Turning to `CCN(CC)CC1CCc2ccc(OC(=O)C(C)(C)C)cc21` (stereo not drawn) [Lu 23-020, 6-pivaloyloxy-N,N-diethyl-1-indanmethylamine], in the assay on DA-receptor, the “6-OHDA Contr. Circle. rats (sc) ED50” value was 0.33 µmol/kg. Besides, the “Motility Inh. rats (sc) ED50” value with DA-autoreceptors was 0.84 µmol/kg.
On to `CCCN(CCC)CC1CCc2ccc(OC(=O)c3ccccc3C)cc21` (stereo not drawn) [Lu 24-028], for which, in the assay on DA-receptor, the “6-OHDA Contr. Circle. rats (sc) Duration” value stood at 18 h.
On the same count and under the same terms, the result for `CCCN(CCC)CC1CCc2ccc(OC(=O)c3c(F)cccc3F)cc21` (stereo not drawn) [Lu 24-029, 6-(2,6-Difluorbenzoyloxy)-N,N-dipropyl-1-indanmethylamine] reads 4 h.
Still for that read-out and setting: the result for `CCCN(CCC)CC1CCc2ccc(OC(=O)c3ccccc3OC)cc21` (stereo not drawn) [Lu 24-030, 6-(2-methoxybenzoyloxy)-N,N-dipropyl-1-indanmethylamine] reads 4 h; that for `CCCN(CCC)CC1CCc2ccc(OC(=O)c3ccccc3Cl)cc21` (stereo not drawn) [Lu 24-031, 6-(2-chlorobenzoyloxy)-N,N-dipropyl-1-indanmethylamine], 4 h.
With `CCCN(CCC)CC1CCc2ccc(OC(=O)c3ccccc3OC(C)=O)cc21` (stereo not drawn) [Lu 24-032, 6-(2-acetyloxybenzoyloxy)-N,N-dipropyl-1-indanmethylamine], the “6-OHDA Contr. Circle. rats (sc) Duration” value in the assay with DA-receptor turned out to be 4 h.
Take `CCCN(CCC)CC1CCc2ccc(OC(=O)c3ccccc3F)cc21` (stereo not drawn) [Lu 24-033, 6-(2-fluorbenzoyloxy)-N,N-dipropyl-1-indanmethylamine]: in the assay with DA-receptor, the “6-OHDA Contr. Circle. rats (sc) Duration” value came out at 4 h.
`CCCN(CCC)CC1COc2ccc(OC(=O)C(C)(C)C)cc21` (stereo not drawn) [Lu 24-042, 5-Pivaloyloxy-2,3-dihydro-N,N-dipropyl-3-benzofuranmethylamine]: the “6-OHDA Contr. Circle. rats (sc) ED50” value in the assay on DA-receptor is 0.40 µmol/kg.
As for `CCCN(CCC)CC1COc2ccc(OC(=O)c3ccccc3C)cc21` (stereo not drawn) [Lu 24-074, 5-(2-Methylbenzoyloxy)-2,3-dihydro-N,N-dipropyl-3-benzofuranmethylamine], in the assay on DA-receptor, the “6-OHDA Contr. Circle. rats (sc) Duration” value was 15 h.
`CCCN(CCC)CC1COc2ccc(OC(=O)NC(C)C)cc21` (stereo not drawn) [Lu 25-158, 5-isopropylaminocarbonyloxy-2,3-dihydro-N,N-dipropyl-3-benzofuranmethylamine]: the “6-OHDA Contr. Circle. rats (sc) Duration” value in the assay with DA-receptor is 4 h.
On to `CCCN(CCC)CC1COc2ccc(OC(=O)c3ccccc3N)cc21` (stereo not drawn) [Lu 25-165, 5-(2-aminobenzoyloxy)-2,3-dihydro-N,N-dipropyl-3-benzofuranmethylamine], for which, in the assay with DA-receptor, the “6-OHDA Contr. Circle. rats (sc) Duration” value is greater than 6 h.
In the case of `CCN(CC)CC1CCc2ccc(OC(=O)Nc3ccc(C(C)C)cc3)cc21` (stereo not drawn) [Lu 25-177, 6-(4-isopropylphenylaminocarbonyloxy)-N,N-diethyl-1-indanmethylamine], the “6-OHDA Contr. Circle. rats (sc) Duration” value in the assay on DA-receptor was greater than 6 h.

The record behind these values is patent US4847254A, “CNS affecting 5-oxy-3-aminomethyl-dihydro-benzofurans and benzothiophenes” (H. Lundbeck A/S, priority 1987, dated 1989).
